Laboratory results from patent US20230218746A1, “COMPOSITIONS AND METHODS RELATING TO ANTIVIRAL THERAPEUTICS” (priority 2020, published 2023).

What was measured:
COVID-19 = conditions: hospitalized COVID-19 patients; cited from earlier work
SARS-CoV-2 mimics = assay: In vivo clearance of the SARS-CoV-2 mimicking virus by nanodecoys in mice; parameters: species or system CD1 mice; conditions: mouse

Row | Molecule | effect on overall mortality, necessity for mechanical ventilation, and length of hospital stay (COVID-19) | amounts of SARS-CoV-2 mimics in lungs (ex vivo imaging) (SARS-CoV-2 mimics)
1 | CCN(CCO)CCCC(C)Nc1ccnc2cc(Cl)ccc12 (stereo not drawn) [hydroxychloroquine] | little or no effect | 
2 | lopinavir/ritonavir | little or no effect | 
3 | rACE2: free recombinant ACE2 protein, same amount of ACE2 as on the nanodecoys |  | ineffective
